Measured values from ChEMBL document CHEMBL1151433, “National and regional assessment of antimicrobial resistance among community-acquired respiratory tract pathogens identified in a 2005-2006 U.S. Faropenem surveillance study” (2007).
≈ marks a conversion by molar mass, not a printed value.

Tests used:
Streptococcus pneumoniae [1] = test: Antibacterial activity against penicillin-intermediate Streptococcus pneumoniae ATCC 49619 isolated from respiratory tract infected patients after 20 to 24 hrs by broth microdilution method; format: functional
Streptococcus pneumoniae [2] = test: Antibacterial activity against Streptococcus pneumoniae ATCC 49619 isolated from respiratory tract infected patients within 2 years of age after 20 to 24 hrs by broth microdilution method; format: functional
Moraxella catarrhalis = test: Antibacterial activity against Moraxella catarrhalis isolated from respiratory tract infected patients after 20 to 24 hrs by broth microdilution method; format: functional
Streptococcus pneumoniae [3] = test: Antibacterial activity against Streptococcus pneumoniae ATCC 49619 isolated from respiratory tract infected patients after 20 to 24 hrs by broth microdilution method; format: functional
Streptococcus pneumoniae [4] = test: Antibacterial activity against Streptococcus pneumoniae ATCC 49619 isolated from respiratory tract infected inpatients after 20 to 24 hrs by broth microdilution method; format: functional
Streptococcus pneumoniae [5] = test: Antibacterial activity against Streptococcus pneumoniae ATCC 49619 isolated from respiratory tract infected female patients after 20 to 24 hrs by broth microdilution method; format: functional
Streptococcus pneumoniae [6] = test: Antibacterial activity against Streptococcus pneumoniae ATCC 49619 isolated from respiratory tract infected patients with 15 to 64 years of age after 20 to 24 hrs by broth microdilution method; format: functional
Streptococcus pneumoniae [7] = test: Antibacterial activity against Streptococcus pneumoniae ATCC 49619 isolated from respiratory tract infected outpatients after 20 to 24 hrs by broth microdilution method; format: functional
Streptococcus pneumoniae [8] = test: Antibacterial activity against Streptococcus pneumoniae ATCC 49619 isolated from respiratory tract infected patients with 3 to 5 years of age after 20 to 24 hrs by broth microdilution method; format: functional
Streptococcus pneumoniae [9] = test: Antibacterial activity against penicillin-susceptible Streptococcus pneumoniae ATCC 49619 isolated from respiratory tract infected patients after 20 to 24 hrs by broth microdilution method; format: functional
Streptococcus pneumoniae [10] = test: Antibacterial activity against penicillin-resistant Streptococcus pneumoniae ATCC 49619 isolated from respiratory tract infected patients after 20 to 24 hrs by broth microdilution method; format: functional
Streptococcus pneumoniae [11] = test: Antibacterial activity against Streptococcus pneumoniae ATCC 49619 isolated from respiratory tract infected patients with 6 to 14 years of age after 20 to 24 hrs by broth microdilution method; format: functional
Streptococcus pneumoniae [12] = test: Antibacterial activity against Streptococcus pneumoniae ATCC 49619 isolated from respiratory tract infected patients more than 65 years of age after 20 to 24 hrs by broth microdilution method; format: functional
Streptococcus pneumoniae [13] = test: Antibacterial activity against Streptococcus pneumoniae ATCC 49619 isolated from respiratory tract infected male patients after 20 to 24 hrs by broth microdilution method; format: functional
Haemophilus influenzae [14] = test: Antibacterial activity against beta lactamase-negative Haemophilus influenzae […] isolated from respiratory tract infected patients after 20 to 24 hrs by broth microdilution method; format: functional; conditions: ATCC 49247
Streptococcus pneumoniae [15] = test: Antibacterial activity against Streptococcus pneumoniae ATCC 49619 isolated from respiratory tract infected patients assessed as resistant isolates after 20 to 24 hrs by broth microdilution method; format: functional
Streptococcus pneumoniae [16] = test: Antibacterial activity against Streptococcus pneumoniae ATCC 49619 isolated from respiratory tract infected inpatients assessed as resistant isolates after 20 to 24 hrs by broth microdilution method; format: functional
Streptococcus pneumoniae [17] = test: Antibacterial activity against Streptococcus pneumoniae ATCC 49619 isolated from respiratory tract infected outpatients assessed as resistant isolates after 20 to 24 hrs by broth microdilution method; format: functional
Haemophilus influenzae [18] = test: Antibacterial activity against beta lactamase-positive Haemophilus influenzae […] isolated from respiratory tract infected patients assessed as susceptible isolates after 20 to 24 hrs by broth microdilution method; format: functional, ATCC 49247
Streptococcus pneumoniae [19] = test: Antibacterial activity against penicillin-susceptible Streptococcus pneumoniae ATCC 49619 isolated from respiratory tract infected patients assessed as resistant isolates after 20 to 24 hrs by broth microdilution method; format: functional
Streptococcus pneumoniae [20] = test: Antibacterial activity against penicillin-intermediate Streptococcus pneumoniae ATCC 49619 isolated from respiratory tract infected patients assessed as susceptible isolates after 20 to 24 hrs by broth microdilution method; format: functional
Haemophilus influenzae [21] = test: Antibacterial activity against beta lactamase-positive Haemophilus influenzae […] isolated from respiratory tract infected patients after 20 to 24 hrs by broth microdilution method; format: functional; conditions: ATCC 49247
Streptococcus pneumoniae [22] = test: Antibacterial activity against Streptococcus pneumoniae ATCC 49619 isolated from respiratory tract infected patients assessed as susceptible isolates after 20 to 24 hrs by broth microdilution method; format: functional
Streptococcus pneumoniae [23] = test: Antibacterial activity against Streptococcus pneumoniae ATCC 49619 isolated from respiratory tract infected patients with 6 to 14 years of age assessed as resistant isolates after 20 to 24 hrs by broth microdilution method; format: functional
Haemophilus influenzae [24] = test: Antibacterial activity against Haemophilus influenzae […] isolated from respiratory tract infected patients assessed as susceptible isolates after 20 to 24 hrs by broth microdilution method; format: functional, ATCC 49247
Streptococcus pneumoniae [25] = test: Antibacterial activity against Streptococcus pneumoniae ATCC 49619 isolated from respiratory tract infected female patients assessed as resistant isolates after 20 to 24 hrs by broth microdilution method; format: functional
Streptococcus pneumoniae [26] = test: Antibacterial activity against Streptococcus pneumoniae ATCC 49619 isolated from respiratory tract infected male patients assessed as resistant isolates after 20 to 24 hrs by broth microdilution method; format: functional
Streptococcus pneumoniae [27] = test: Antibacterial activity against Streptococcus pneumoniae ATCC 49619 isolated from respiratory tract infected patients more than 65 years of age assessed as resistant isolates after 20 to 24 hrs by broth microdilution method; format: functional
Haemophilus influenzae [28] = test: Antibacterial activity against beta lactamase-negative Haemophilus influenzae […] isolated from respiratory tract infected patients assessed as susceptible isolates after 20 to 24 hrs by broth microdilution method; format: functional
Streptococcus pneumoniae [29] = test: Antibacterial activity against penicillin-resistant Streptococcus pneumoniae ATCC 49619 isolated from respiratory tract infected patients assessed as susceptible isolates after 20 to 24 hrs by broth microdilution method; format: functional
Streptococcus pneumoniae [30] = test: Antibacterial activity against Streptococcus pneumoniae ATCC 49619 isolated from respiratory tract infected patients with 3 to 5 years of age assessed as resistant isolates after 20 to 24 hrs by broth microdilution method; format: functional
Streptococcus pneumoniae [31] = test: Antibacterial activity against Streptococcus pneumoniae ATCC 49619 isolated from respiratory tract infected patients with 15 to 64 years of age assessed as resistant isolates after 20 to 24 hrs by broth microdilution method; format: functional
Streptococcus pneumoniae [32] = test: Antibacterial activity against Streptococcus pneumoniae ATCC 49619 isolated from respiratory tract infected patients within 2 years of age assessed as resistant isolates after 20 to 24 hrs by broth microdilution method; format: functional
Streptococcus pneumoniae [33] = test: Antibacterial activity against penicillin-intermediate Streptococcus pneumoniae ATCC 49619 isolated from respiratory tract infected patients assessed as resistant isolates after 20 to 24 hrs by broth microdilution method; format: functional
Streptococcus pneumoniae [34] = test: Antibacterial activity against penicillin-susceptible Streptococcus pneumoniae ATCC 49619 isolated from respiratory tract infected patients assessed as susceptible isolates after 20 to 24 hrs by broth microdilution method; format: functional
Streptococcus pneumoniae [35] = test: Antibacterial activity against penicillin-resistant Streptococcus pneumoniae ATCC 49619 isolated from respiratory tract infected patients assessed as resistant isolates after 20 to 24 hrs by broth microdilution method; format: functional
Haemophilus influenzae [36] = test: Antibacterial activity against Haemophilus influenzae […] isolated from respiratory tract infected patients after 20 to 24 hrs by broth microdilution method; format: functional; conditions: ATCC 49247

## C[C@@H](O)[C@H]1C(=O)N2C(C(=O)O)=C([C@H]3CCCO3)S[C@H]12 [FAROPENEM]
Streptococcus pneumoniae [1]
  MIC50: 0.06 µg/mL (≈ 0.21 µM)
  MIC90: 0.25 µg/mL (≈ 0.876 µM)
Streptococcus pneumoniae [2]
  MIC90: 1 µg/mL (≈ 3.5 µM)
Moraxella catarrhalis
  MIC50: 0.25 µg/mL (≈ 0.876 µM)
  MIC90: 0.5 µg/mL (≈ 1.75 µM)
Streptococcus pneumoniae [3]
  MIC50: 0.015 µg/mL (≈ 0.0526 µM)
  MIC90: 0.5 µg/mL (≈ 1.75 µM)
Streptococcus pneumoniae [4]
  MIC90: 0.5 µg/mL (≈ 1.75 µM)
Streptococcus pneumoniae [5]
  MIC90: 0.5 µg/mL (≈ 1.75 µM)
Streptococcus pneumoniae [6]
  MIC90: 0.5 µg/mL (≈ 1.75 µM)
Streptococcus pneumoniae [7]
  MIC90: 0.5 µg/mL (≈ 1.75 µM)
Streptococcus pneumoniae [8]
  MIC90: 1 µg/mL (≈ 3.5 µM)
Streptococcus pneumoniae [9]
  MIC50: 0.008 µg/mL (≈ 0.028 µM)
  MIC90: 0.015 µg/mL (≈ 0.0526 µM)
Streptococcus pneumoniae [10]
  MIC50: 1 µg/mL (≈ 3.5 µM)
  MIC90: 2 µg/mL (≈ 7.01 µM)
Streptococcus pneumoniae [11]
  MIC90: 0.5 µg/mL (≈ 1.75 µM)
Streptococcus pneumoniae [12]
  MIC90: 0.5 µg/mL (≈ 1.75 µM)
Streptococcus pneumoniae [13]
  MIC90: 0.5 µg/mL (≈ 1.75 µM)

## C[C@H]1COc2c(N3CCN(C)CC3)c(F)cc3c(=O)c(C(=O)O)cn1c23.C[C@H]1COc2c(N3CCN(C)CC3)c(F)cc3c(=O)c(C(=O)O)cn1c23.O [LEVOFLOXACIN]
Haemophilus influenzae [14]
  MIC50: ≤ 0.06 µg/mL
  MIC90: ≤ 0.06 µg/mL
Streptococcus pneumoniae [15]
  Activity: 0.6%
Streptococcus pneumoniae [1]
  MIC50: 1 µg/mL
  MIC90: 1 µg/mL
Streptococcus pneumoniae [16]
  Activity: 0.1%
Streptococcus pneumoniae [17]
  Activity: 0.9%
Haemophilus influenzae [18]
  Activity: 100%
Streptococcus pneumoniae [19]
  Activity: 0.2%
Streptococcus pneumoniae [2]
  MIC90: 1 µg/mL
Moraxella catarrhalis
  MIC50: ≤ 0.06 µg/mL
  MIC90: ≤ 0.06 µg/mL
Streptococcus pneumoniae [3]
  MIC50: 1 µg/mL
  MIC90: 1 µg/mL
Streptococcus pneumoniae [20]
  Activity: 98.8%
Haemophilus influenzae [21]
  MIC50: ≤ 0.06 µg/mL
  MIC90: ≤ 0.06 µg/mL
Streptococcus pneumoniae [4]
  MIC90: 1 µg/mL
Streptococcus pneumoniae [22]
  Activity: 99.2%
Streptococcus pneumoniae [23]
  Activity: 0%
Haemophilus influenzae [24]
  Activity: 99.9%
Streptococcus pneumoniae [25]
  Activity: 0.3%
Streptococcus pneumoniae [26]
  Activity: 0.8%
Streptococcus pneumoniae [5]
  MIC90: 1 µg/mL
Streptococcus pneumoniae [6]
  MIC90: 1 µg/mL
Streptococcus pneumoniae [27]
  Activity: 1.4%
Haemophilus influenzae [28]
  Activity: 99.7%
Streptococcus pneumoniae [29]
  Activity: 98%
Streptococcus pneumoniae [7]
  MIC90: 1 µg/mL
Streptococcus pneumoniae [8]
  MIC90: 1 µg/mL
Streptococcus pneumoniae [30]
  Activity: 0%
Streptococcus pneumoniae [31]
  Activity: 0.4%
Streptococcus pneumoniae [9]
  MIC50: 1 µg/mL
  MIC90: 1 µg/mL
Streptococcus pneumoniae [10]
  MIC50: 1 µg/mL
  MIC90: 1 µg/mL
Streptococcus pneumoniae [32]
  Activity: 0%
Streptococcus pneumoniae [11]
  MIC90: 1 µg/mL
Streptococcus pneumoniae [12]
  MIC90: 1 µg/mL
Streptococcus pneumoniae [33]
  Activity: 0.9%
Streptococcus pneumoniae [13]
  MIC90: 1 µg/mL
Streptococcus pneumoniae [34]
  Activity: 99.7%
Streptococcus pneumoniae [35]
  Activity: 1.6%
Haemophilus influenzae [36]
  MIC50: ≤ 0.06 µg/mL
  MIC90: ≤ 0.06 µg/mL

## C[C@@H](O)[C@H]1C(=O)N2C(C(=O)O)=C(S[C@@H]3CN[C@H](C(=O)N(C)C)C3)[C@H](C)[C@H]12 [MEROPENEM]
Haemophilus influenzae [14]
  MIC50: 0.06 µg/mL (≈ 0.156 µM)
  MIC90: 0.12 µg/mL (≈ 0.313 µM)
Streptococcus pneumoniae [15]
  Activity: 9.5%
Streptococcus pneumoniae [1]
  MIC50: 0.06 µg/mL (≈ 0.156 µM)
  MIC90: 0.25 µg/mL (≈ 0.652 µM)
Haemophilus influenzae [18]
  Activity: 100%
Streptococcus pneumoniae [19]
  Activity: 0%
Moraxella catarrhalis
  MIC50: ≤ 0.004 µg/mL
  MIC90: 0.008 µg/mL (≈ 0.0209 µM)
Streptococcus pneumoniae [3]
  MIC50: 0.015 µg/mL (≈ 0.0391 µM)
  MIC90: 0.5 µg/mL (≈ 1.3 µM)
Streptococcus pneumoniae [20]
  Activity: 93.2%
Haemophilus influenzae [21]
  MIC50: 0.03 µg/mL (≈ 0.0782 µM)
  MIC90: 0.06 µg/mL (≈ 0.156 µM)
Streptococcus pneumoniae [22]
  Activity: 83.2%
Haemophilus influenzae [24]
  Activity: 99.7%
Haemophilus influenzae [28]
  Activity: 99.6%
Streptococcus pneumoniae [29]
  Activity: 4.5%
Streptococcus pneumoniae [9]
  MIC50: 0.015 µg/mL (≈ 0.0391 µM)
  MIC90: 0.015 µg/mL (≈ 0.0391 µM)
Streptococcus pneumoniae [10]
  MIC50: 1 µg/mL (≈ 2.61 µM)
  MIC90: 1 µg/mL (≈ 2.61 µM)
Streptococcus pneumoniae [33]
  Activity: 0%
Streptococcus pneumoniae [34]
  Activity: 100%
Streptococcus pneumoniae [35]
  Activity: 59.5%
Haemophilus influenzae [36]
  MIC50: 0.03 µg/mL (≈ 0.0782 µM)
  MIC90: 0.12 µg/mL (≈ 0.313 µM)
